Measured values published in US6969583B2, “Method for detecting variant HBV” (Melbourne Health, priority 2000, dated 2005).
pIC50: −log10 of the molar value. Values joined by “and” are separate entries in the source; they are usually repeats but may differ in a detail not shown here. Equal values may be shown once. Read-outs that look alike come from different tables or passages of the source.

How the values were obtained:
Format in all cases: cell-based, Hepatitis B virus
[1] = system: wild-type (WT) recombinant HBV-baculovirus; test: Antiviral testing, wild-type (1.3x genomic length) recombinant HBV-baculovirus in HepG2 cells (Example 17); settings: for pIC50: individual experiments behind the average; for IC50: averages where footnoted
Experimental: (§1) HepG2 cells were seeded at approximately 20-40% confluency and then were grown for 16-24 hours before infection. On the day of infection, triplicate plates of cells were trypsinized, and viable cell number was determined with a hemocytometer using Trypan blue exclusion. Average cell counts were calculated and used to determine the volume of high-titer viral stock necessary to infect cells at the indicated moi. HepG2 cells were washed one time with serum-free MEM to remove traces of serum. Baculovirus was diluted into MEM without serum to achieve the appropriate moi using volumes of 1.0, 0.5, and 0.25 ml to infect 100-mm, 60 mm, and 35-mm dishes, respectively. Baculovirus was adsorbed to HepG2 cells for one hour at 37° C. with gentle rocking every 15 minutes to ensure that the inoculum was evenly distributed. The inoculum was then aspirated and HepG2 cells were washed two times with phosphate-buffered saline and refed MEM-FBS with or without various concentrations of agents.
(§2) HBV core particles were isolated from the cytoplasmic fraction of HepG2 cells lysed in 0.5% w/v NP-40. Cytoplasmic extracts were adjusted to 10 mmol/l McC12 and unprotected DNA was removed by an incubation to […] for 1.5 hours at 37° C. Following sequential phenol and chloroform extractions, nucleic acids were recovered by ethanol precipitation. Nucleic acids were resuspended in 50 μl/l TE (10 mmol/l Tris, 1 mmol/l ethylenedianinetetraacetic acid), normalized by OD260, and digested with 100 μg/ml RNase (Boehringer Mannheim, Indianapolis, Ind.) for one hour at 37° C. before analysis by electrophoresis and Southern blotting. A BioRad GS-670 imaging densitometer and the Molecular Analyst software (BioRad, Hecules Calif.) was used to analyze suitable exposures of Southern blots. Densitometry data was fitted to logistic dose response curves using the TableCurve2D software package from Jandel Scientific. Logistic dose response equations were used to calculate IC50 and IC90 values and co-efficients of variation.
(§3) Conditioned medium was collected from HepG2 cells and subjected to centrifugation at 6,000 g for five minutes to remove cellular debris. HBV particles were precipitated with 10% w/v PEG 8000 and were concentrated by centrifugation at 12,000 ×g. Viral pellets were resuspended us 1 ml of MEM-FBS and divided into two aliquots. One set of aliquots was treated with 750 μg/ml Pronase for one hour and then with […] DNase 1 for one hour. Both sets of aliquots were then digested with Proteinase K, and extracted with phenol and chloroform. DNA was precipitated with 0.1 volume of 3 mol/l sodium acetate and 1 volume of isopropanol. Ten micrograms of transfer RNA was added as a carrier during precipitation. Pellets were resuspended in 25 μl of TE and digested with 0.5 mg/ml RNase for one hour. DNA was then analyzed by electrophoresis and Southern blotting.
(§4) 3TC and PCV were a gift from Klaus Esser, SmithKline Beecham, Collegeville, Pa. PMEA was obtained from Gilead (Foster City, Calif.). 3TC was resuspended in sterile water, aliquoted, and frozen at −20° C. to avoid repeated freezing and thawing of the drug. PMEA was resuspended in sterile water after the pH was adjusted to 7.0 with NaOH. PCV was resuspended in dimethyl sulphoxide. Medium containing 3TC was prepared daily as needed using fresh aliquots of 3TC. In experiments in which 3TC treatment was initiated after viral infection, HepG2 cells were exposed to the indicated concentration of 3TC immediately after infection with HBV baculovirus. In experiments utilizing pretreatment with 3TC, cells were fed medium containing 3TC 16 hours prior to HBV baculovirus infection, HBV baculovirus infection was also carried out in medium containing 3TC, and cells were refed fresh medium containing 3TC immediately after completion of the infection and washing procedures. Treatment with PMEA and PCV were conducted in a similar manner.

[2] = system: L526M HBV baculovirus; test: Antiviral testing with L526M HBV baculovirus in HepG2 cells (Example 15); settings: for inhibition at 1 µM / pIC50: Hepatitis B virus
Experimental: as §1, §2, §4

[3] = system: wild-type HBV baculovirus; test: Antiviral testing with wild-type HBV baculovirus in HepG2 cells (Example 15, Southern blot densitometry); settings: for inhibition at 1 µM / pIC50: Hepatitis B virus, wt HBV; for inhibition at 1 µM: HepG2, ds HBV DNA band density vs untreated controls, estimated from fitted curve, negative = stimulation of replication; for pIC50: ds HBV DNA bands, HepG2 cells
Experimental: as §1, §2, §4
The dose effect of 3TC and PMEA, on wild-type HBV is shown graphically in FIG. 6 (A, B,) and a Southern Blot of intracellular HBV replicative intermediates and extracellular virus produced by HepG2 cells transduced with wild-type HBV-baculovirus in the presence of increasing concentrations of PCV is shown in FIG. 6C and the IC50 for each antiviral agent is shown in Table 2.

[4] = system: L526M/M550V HBV baculovirus; test: Antiviral testing with L526M/M550V HBV baculovirus in HepG2 cells (Example 15); settings: for inhibition at 1 µM / pIC50: Hepatitis B virus, dual (L526M/M550V) HBV; for inhibition at 1 µM: HepG2, ds HBV DNA band density vs untreated controls, estimated from fitted curve, negative = stimulation; for pIC50: ds HBV DNA bands, HepG2 cells
Experimental: as §1, §2, §4

[5] = system: precore (G1896A) recombinant HBV-baculovirus; test: Antiviral testing of the precore mutant (G1896A) HBV baculovirus in HepG2 cells (Example 17); settings: for pIC50: read-out: IC50, single experiments, EC RC
Experimental: as §1, §2, §3, §4

[6] = system: M550I HBV baculovirus; test: Antiviral testing with M550I HBV baculovirus in HepG2 cells (Example 15); settings: for inhibition at 1 µM: ds HBV DNA band density vs untreated controls, estimated from fitted curve, negative = stimulation
Experimental: as §1, §2, §4

[7] = system: Precore/M550I recombinant HBV-baculovirus; test: Antiviral testing, Precore/M550I recombinant HBV-baculovirus in HepG2 cells (Example 17); settings: NDR = no dose response
Experimental: as §1, §2
as §3, with “Pellets were resuspended in 25 μl of TE and digested with 0.5 mg/ml RNase for one hour.” left out, “blotting. […]” for “blotting.”

[8] = system: M550I recombinant HBV-baculovirus; test: Antiviral testing, M550I recombinant HBV-baculovirus in HepG2 cells (Example 17); settings: intracellular single-stranded HBV DNA, NDR = no dose response
Experimental: as §1
(§5) HBV core particles were isolated from the cytoplasmic fraction of HepG2 cells lysed in 0.5% w/v NP-40. […]
(§6) Conditioned medium was collected from HepG2 cells and subjected to centrifugation at 6,000 g for five minutes to remove cellular debris. […] DNA was then analyzed by electrophoresis and Southern blotting. […]

[9] = system: Precore/L526M/M550V recombinant HBV-baculovirus; test: Antiviral testing, Precore/L526M/M550V recombinant HBV-baculovirus in HepG2 cells (Example 17); settings: NDR = no dose response
Experimental: as §1, §2
as §3, with “Pellets were resuspended in 25 μl of TE and digested with 0.5 mg/ml RNase for one hour.” left out, “blotting. […]” for “blotting.”

[10] = system: L526M/M550V recombinant HBV-baculovirus; test: Antiviral testing, L526M/M550V recombinant HBV-baculovirus in HepG2 cells (Example 17); settings: intracellular single-stranded HBV DNA, NDR = no dose response
Experimental: as §1, §5, §6

[11] = system: any HBV/baculovirus variant encoding the mutations at M550I or L526M/M550V; test: Southern blots of HBV DNA from HepG2 cells transduced with lamivudine-resistant recombinant HBV-baculovirus variants (Example 17); settings: intracellular and extracellular HBV DNA, no dose response could be plotted
Experimental: as §1, §5, §6

[12] = Hepatitis B virus, HepG2, 550 (M550I) HBV
[13] = extracellular relaxed circular HBV DNA
[14] = intracellular single-stranded HBV DNA

## Nc1ccn([C@@H]2CS[C@H](CO)O2)c(=O)n1 [Lamivudine, (−)-b-L-2′,3′-dideoxy-3′-thiacytidine]
[1]; Hepatitis B virus, HepG2, WT, intracellular single-stranded HBV DNA, read-out: IC50, single experiments, IC SS
  pIC50: 7.17
[1]; Hepatitis B virus, HepG2, read-out: IC50 (μM), EC RC, WT, extracellular relaxed circular HBV DNA
  IC50: 0.018 µM
[1]; Hepatitis B virus, HepG2, read-out: IC50 (μM), IC SS, WT, intracellular single-stranded HBV DNA
  IC50: 0.0697 µM
[1]; WT, extracellular relaxed circular HBV DNA, read-out: IC50, single experiments, EC RC
  pIC50: 7.66 and 7.53 and 8.02
[1]; WT, intracellular single-stranded HBV DNA, read-out: IC50, single experiments, IC SS
  pIC50: 7.07 and 7.24
[2]; HepG2, 526 (L526M) HBV, ds HBV DNA band density vs untreated controls, estimated from fitted curve, negative = stimulation, read-out: Inhibition at 1 μM
  inhibition at 1 µM: 85.8%
[2]; 526 (L526M) HBV, ds HBV DNA bands, HepG2 cells, read-out: IC50
  pIC50: 7.52
[2]; L526M vs wild-type, FIG. 7A
  shift in the IC50 compared to the wild-type: > 0.5 log
[2]; {}
  Resistance Factor: 3
[3]
  inhibition at 1 µM: 99.6%
  pIC50: 8.05
  Resistance Factor: 1
[4]
  inhibition at 1 µM: -15%
  pIC50: 4.06
  Resistance Factor: 9578
[5]; Hepatitis B virus, HepG2, Precore (G1896A), extracellular relaxed circular HBV DNA, individual experiments behind the average
  pIC50: 7.92
[5]; Hepatitis B virus, HepG2, read-out: IC50 (μM), EC RC, Precore (G1896A), extracellular relaxed circular HBV DNA, averages where footnoted
  IC50: 0.011 µM
[5]; Hepatitis B virus, HepG2, read-out: IC50 (μM), IC SS, Precore (G1896A), intracellular single-stranded HBV DNA, averages where footnoted
  IC50: 0.0207 µM
[5]; Precore (G1896A), extracellular relaxed circular HBV DNA, individual experiments behind the average
  pIC50: 8.00
[5]; Precore (G1896A), intracellular single-stranded HBV DNA, individual experiments behind the average, read-out: IC50, single experiments, IC SS
  IC50: 14 nM (2×) and 32 nM
[6]; [12]
  inhibition at 1 µM: 26.7%
[6]; Hepatitis B virus, 550 (M550I) HBV, ds HBV DNA bands, HepG2 cells, read-out: IC50
  pIC50: 5.42
[6]
  Resistance Factor: 422

## Nc1nc2c(ncn2CCC(CO)CO)c(=O)[nH]1 [Penciclovir, 9-[4-hydroxy-3-(hydroxymethyl)but-1-yl]guanine]
[1]; Hepatitis B virus, HepG2, WT, extracellular relaxed circular HBV DNA, read-out: IC50 (μM), EC RC
  IC50: 23 µM
[1]; Hepatitis B virus, HepG2, WT, intracellular single-stranded HBV DNA, read-out: IC50 (μM), IC SS
  IC50: 226 µM
[2]; 526 (L526M) HBV, mutant IC50 divided by wt IC50, nearest integer
  Resistance Factor: 9
[2]; FIG. 7A-7C, result in words
  change in sensitivity of L526M compared to wild-type: No significant change
[2]; HepG2
  pIC50: 3.99
[2]; HepG2, read-out: Inhibition at 1 μM
  inhibition at 1 µM: -3%
[3]
  inhibition at 1 µM: 7%
  pIC50: 4.94
  Resistance Factor: 1
[3]; dose effect, FIG. 6, result in words
  effect on wild-type HBV replication: modest effect
[7]; [13]
  IC50 (μM), EC RC: NDR
[7]; [14]
  IC50 (μM), IC SS: NDR
[4]; FIG. 8A-8C, result in words
  change in sensitivity of L526M/M550V: no substantial change
[4]
  inhibition at 1 µM: -10%
  pIC50: 3.43
  Resistance Factor: 32
[8]
  IC50 (μM), IC SS: NDR
[5]; Hepatitis B virus, HepG2, Precore (G1896A), extracellular relaxed circular HBV DNA, averages where footnoted, read-out: IC50 (μM), EC RC
  IC50: 6 µM
[5]; Hepatitis B virus, HepG2, Precore (G1896A), intracellular single-stranded HBV DNA, averages where footnoted, read-out: IC50 (μM), IC SS
  IC50: 85 µM
[5]; result in words
  sensitivity of G1896A HBV compared with wild type HBV: may be more sensitive
[9]; [13]
  IC50 (μM), EC RC: NDR
[9]; [14]
  IC50 (μM), IC SS: NDR
[10]
  IC50 (μM), IC SS: NDR
[6]; [12]
  inhibition at 1 µM: -24%
[6]; Hepatitis B virus, HepG2, 550 (M550I) HBV, ds HBV DNA bands, extrapolated value, read-out: IC50 (μM), extrapolated value
  IC50: 1220 µM
[6]
  Resistance Factor: 106
[11]
  resistance conferred by M550I or L526M/M550V changes: high degree of resistance
